Inconclusive results and toxic doses are left out.
Tested on: L1210 leukemia ip in BDF1 mice, survival T/C
Assay: NCI In Vivo Anticancer Drug Screen. Data for tumor model L1210 Leukemia (intraperitoneal) in B6D2F1 (BDF1) mice
Conditions: endpoint: mean survival time, higher = longer survival
How it was run: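 Tumor cells were implanted, animals were treated, and survival was followed. The result divides the treated measurement by the vehicle-control measurement.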

[1] = dose: 100.0 mg/kg/injection, schedule: Q01DX009 (ip), vehicle: Klucel (hydroxypropylcellulose) (HPC)
[2] = dose: 400.0 mg/kg/injection, schedule: Q01DX009 (ip), vehicle: Klucel (hydroxypropylcellulose) (HPC)
[3] = dose: 100.0 mg/kg/injection, schedule: Q04DX003 (ip), vehicle: Klucel (hydroxypropylcellulose) (HPC)
[4] = dose: 200.0 mg/kg/injection, schedule: Q04DX003 (ip), vehicle: Klucel (hydroxypropylcellulose) (HPC)
[5] = dose: 400.0 mg/kg/injection, schedule: Q04DX003 (ip), vehicle: Klucel (hydroxypropylcellulose) (HPC)
[6] = dose: 50.0 mg/kg/injection, schedule: Q01DX001 (ip), vehicle: saline
[7] = dose: 100.0 mg/kg/injection, schedule: Q01DX001 (ip), vehicle: saline
[8] = dose: 200.0 mg/kg/injection, schedule: Q01DX001 (ip), vehicle: saline
[9] = dose: 400.0 mg/kg/injection, schedule: Q01DX001 (ip), vehicle: saline

CC(=O)OC1CCC(CC2CCCCC2)CC1 (configuration not stated)
T/C (dose: 50.0 mg/kg/injection, schedule: Q01DX009 (ip), vehicle: Klucel (hydroxypropylcellulose) (HPC)): 94 % of control
T/C [1]: 100 % of control
T/C (dose: 200.0 mg/kg/injection, schedule: Q01DX009 (ip), vehicle: Klucel (hydroxypropylcellulose) (HPC)): 100 % of control
T/C [2]: 93 % of control

C=C(C)C(=O)Nc1c(C)cccc1C
T/C [3]: 105 % of control
T/C [4]: 94 % of control

COc1ccc(OC)c(NC(=O)c2ccc(N(CCc3cnc4nc(NC(C)=O)[nH]c(=O)c4n3)C(=O)C(F)(F)F)cc2)c1
T/C (dose: 100.0 mg/kg/injection, schedule: Q01DX009 (ip), vehicle: carboxymethylcellulose (CMC)): 104 % of control
T/C (dose: 100.0 mg/kg/injection, schedule: Q04DX003 (ip), vehicle: other): 97 % of control
T/C (dose: 200.0 mg/kg/injection, schedule: Q01DX009 (ip), vehicle: carboxymethylcellulose (CMC)): 94 % of control
T/C (dose: 200.0 mg/kg/injection, schedule: Q04DX003 (ip), vehicle: other): 97 % of control
T/C (dose: 400.0 mg/kg/injection, schedule: Q01DX009 (ip), vehicle: carboxymethylcellulose (CMC)): 94 % of control
T/C (dose: 400.0 mg/kg/injection, schedule: Q04DX003 (ip), vehicle: other): 92 % of control

CCCCCCCCCCCCCCCCCCCCCCCCC
T/C [3]: 91 % of control
T/C [4]: 89 % of control
T/C [5]: 87 % of control

Oc1c(Br)cc(Br)cc1/C=N/N=C/c1cc(Br)cc(Br)c1O
T/C (dose: 100.0 mg/kg/injection, schedule: Q01DX001 (ip), vehicle: Klucel (hydroxypropylcellulose) (HPC)): 90 % of control
T/C [1]: 98 % of control
T/C [3]: 90 % of control
T/C (dose: 200.0 mg/kg/injection, schedule: Q01DX001 (ip), vehicle: Klucel (hydroxypropylcellulose) (HPC)): 90 % of control
T/C [4]: 97 % of control
T/C (dose: 400.0 mg/kg/injection, schedule: Q01DX001 (ip), vehicle: Klucel (hydroxypropylcellulose) (HPC)): 90 % of control
T/C [2]: 88 % of control
T/C [5]: 94 % of control

C[S+](C)CC(=O)c1ccc(Br)cc1
T/C [3]: 97 % of control
T/C [4]: 95 % of control
T/C [5]: 101 % of control

Cc1ccc(S(=O)(=O)NC(=O)N2CCCC2)cc1
T/C [6]: 109 % of control
T/C [7]: 97 % of control
T/C [8]: 94 % of control
T/C [9]: 88 % of control

O=C1C(=O)C2=C(NCCC2)C(O)=C1Cl
T/C (dose: 100.0 mg/kg/injection, schedule: Q01DX001 (ip), vehicle: water): 93 % of control
T/C (dose: 200.0 mg/kg/injection, schedule: Q01DX001 (ip), vehicle: water): 95 % of control
T/C (dose: 400.0 mg/kg/injection, schedule: Q01DX001 (ip), vehicle: water): 98 % of control

O=C(NCC(O)CNC(=O)Nc1ccc(C2=NCCN2)cc1)Nc1ccc(C2=NCCN2)cc1
T/C (dose: 3.75 mg/kg/injection, schedule: Q01DX Z (ip), vehicle: carboxymethylcellulose (CMC)): 97 % of control
T/C (dose: 15.0 mg/kg/injection, schedule: Q01DX Z (ip), vehicle: carboxymethylcellulose (CMC)): 244 % of control
T/C (dose: 21.0 mg/kg/injection, schedule: Q01DX Z (ip), vehicle: carboxymethylcellulose (CMC)): 216 % of control
T/C (dose: 30.0 mg/kg/injection, schedule: Q01DX Z (ip), vehicle: carboxymethylcellulose (CMC)): 164 % of control
T/C (dose: 62.0 mg/kg/injection, schedule: Q01DX Z (oral), vehicle: carboxymethylcellulose (CMC)): 110 % of control
T/C (dose: 84.0 mg/kg/injection, schedule: Q01DX Z (ip), vehicle: carboxymethylcellulose (CMC)): 104 % of control
T/C (dose: 125.0 mg/kg/injection, schedule: Q01DX Z (oral), vehicle: carboxymethylcellulose (CMC)): 108 % of control
T/C (dose: 250.0 mg/kg/injection, schedule: Q01DX Z (oral), vehicle: carboxymethylcellulose (CMC)): 104 % of control
T/C (dose: 500.0 mg/kg/injection, schedule: Q01DX Z (oral), vehicle: carboxymethylcellulose (CMC)): 97 % of control

NC1=NC(c2ccccc2)C2=C(N1)C(=O)N(Cc1ccccc1)C2 (configuration not stated)
T/C (dose: 50.0 mg/kg/injection, schedule: Q01DX001 (ip), vehicle: carboxymethylcellulose (CMC)): 98 % of control
T/C (dose: 100.0 mg/kg/injection, schedule: Q01DX001 (ip), vehicle: carboxymethylcellulose (CMC)): 101 % of control
T/C (dose: 200.0 mg/kg/injection, schedule: Q01DX001 (ip), vehicle: carboxymethylcellulose (CMC)): 98 % of control
T/C (dose: 400.0 mg/kg/injection, schedule: Q01DX001 (ip), vehicle: carboxymethylcellulose (CMC)): 95 % of control

[Cu+2].[Cu+2].[O-]CCCN=Cc1ccccc1[O-].[O-]CCCN=Cc1ccccc1[O-]
T/C (dose: 75.0 mg/kg/injection, schedule: Q01DX001 (ip), vehicle: other): 97 % of control
T/C (dose: 150.0 mg/kg/injection, schedule: Q01DX001 (ip), vehicle: other): 111 % of control
T/C (dose: 300.0 mg/kg/injection, schedule: Q01DX001 (ip), vehicle: other): 102 % of control

CCCCCCC(C)OC(=O)CCCc1ccc(N(CCCl)CCCl)cc1 (configuration not stated)
T/C (dose: 50.0 mg/kg/injection, schedule: Q01DX009 (ip), vehicle: saline): 122 % of control
T/C (dose: 100.0 mg/kg/injection, schedule: Q01DX009 (ip), vehicle: saline): 116 % of control
T/C (dose: 400.0 mg/kg/injection, schedule: Q01DX009 (ip), vehicle: saline): 100 % of control

O=C(O)/C=C/C(=O)NCCNC(=O)/C=C/C(=O)O
T/C [3]: 96 % of control
T/C [4]: 93 % of control
T/C [5]: 96 % of control

Cc1ccc2c(c1)c(N=NC(N)=S)c(O)n2C1OC(CO)C(O)C(O)C1O (configuration not stated)
T/C (dose: 50.0 mg/kg/injection, schedule: Q01DX005 (ip), vehicle: saline): 94 % of control
T/C (dose: 100.0 mg/kg/injection, schedule: Q01DX005 (ip), vehicle: saline): 91 % of control
T/C (dose: 200.0 mg/kg/injection, schedule: Q01DX005 (ip), vehicle: saline): 94 % of control

c1ccc(Nc2ccc3ccccc3c2)cc1
T/C (dose: 100.0 mg/kg/injection, schedule: Q01DX009 (ip), vehicle: saline with Tween-80): 97 % of control
T/C (dose: 100.0 mg/kg/injection, schedule: Q04DX003 (ip), vehicle: saline with Tween-80): 92 % of control
T/C (dose: 200.0 mg/kg/injection, schedule: Q01DX009 (ip), vehicle: saline with Tween-80): 89 % of control
T/C (dose: 200.0 mg/kg/injection, schedule: Q04DX003 (ip), vehicle: saline with Tween-80): 98 % of control
T/C (dose: 400.0 mg/kg/injection, schedule: Q01DX009 (ip), vehicle: saline with Tween-80): 92 % of control
T/C (dose: 400.0 mg/kg/injection, schedule: Q04DX003 (ip), vehicle: saline with Tween-80): 98 % of control

C#CCN(CC#C)c1ccccc1
T/C (dose: 100.0 mg/kg/injection, schedule: Q04DX002 (ip), vehicle: saline with Tween-80): 100 % of control
T/C (dose: 200.0 mg/kg/injection, schedule: Q04DX002 (ip), vehicle: saline with Tween-80): 93 % of control
T/C (dose: 400.0 mg/kg/injection, schedule: Q04DX002 (ip), vehicle: saline with Tween-80): 97 % of control

CCCCCCCCC1OC1CCCCCCCC(=O)O (configuration not stated)
T/C (dose: 25.0 mg/kg/injection, schedule: Q04DX002 (ip), vehicle: Klucel (hydroxypropylcellulose) (HPC)): 108 % of control
T/C [6]: 90 % of control
T/C (dose: 50.0 mg/kg/injection, schedule: Q04DX002 (ip), vehicle: Klucel (hydroxypropylcellulose) (HPC)): 101 % of control
T/C [7]: 97 % of control
T/C (dose: 100.0 mg/kg/injection, schedule: Q04DX002 (ip), vehicle: Klucel (hydroxypropylcellulose) (HPC)): 101 % of control
T/C [8]: 101 % of control
T/C [9]: 90 % of control

CS(=O)(=O)OCCN(CCOS(C)(=O)=O)c1ccc(C=Nc2ccc(C(=O)O)cc2)c(Cl)c1
T/C [3]: 120 % of control
T/C [4]: 105 % of control
T/C [5]: 86 % of control

Cc1cc[n+](C2CC(C)(C)c3ccccc3C2=O)cc1 (configuration not stated)
T/C (dose: 12.5 mg/kg/injection, schedule: Q01DX001 (ip), vehicle: Klucel (hydroxypropylcellulose) (HPC)): 100 % of control
T/C (dose: 25.0 mg/kg/injection, schedule: Q01DX001 (ip), vehicle: Klucel (hydroxypropylcellulose) (HPC)): 113 % of control
T/C (dose: 50.0 mg/kg/injection, schedule: Q01DX001 (ip), vehicle: Klucel (hydroxypropylcellulose) (HPC)): 98 % of control

O=C(CI)Nc1cccc(NC(=O)C(=O)O)c1
T/C (dose: 20.0 mg/kg/injection, schedule: Q04DX003 (ip), vehicle: Klucel (hydroxypropylcellulose) (HPC)): 95 % of control
T/C (dose: 40.0 mg/kg/injection, schedule: Q04DX003 (ip), vehicle: Klucel (hydroxypropylcellulose) (HPC)): 101 % of control

— PubChem BioAssay AID248 (DTP/NCI, 2004)
